Laboratory results reported in paper PMC5318439, “The Novel Toll-Like Receptor 2 Agonist SUP3 Enhances Antigen Presentation and T Cell Activation by Dendritic Cells” (Frontiers in Immunology, 2017).
Where a SMILES comes first, the peptide text is derived from it. The star is where a group is joined. X1 = CCCCCCCCCCCCCCNC(=O)OC[C@H](C*)OC(=O)NCCCCCCCCCCCCCC; Palmitoyl = CCCCCCCCCCCCCCCC(=O)*

Key:
[1] = test system: splenic B cells; assay: Total IgM production by B cells in vitro; assay type: cell-based, mice; settings: 200 nM, 3 or 5 days, ELISA; vs Pam3
From the text: Splenic DCs were purified as described previously ([37]). CD8^+ cDCs expanded by B16-Flt3L inoculation were enriched, and then CD8^+ cDCs were positively sorted by MACS technology (Miltenyi Biotec). Splenic B cells were purified through negative selection by Streptavidin-MicroBeads (Miltenyi Biotec 130-048-102) combined with different antibodies cocktail to exclude non-B cells. The antibodies cocktail was composed of biotinylated antibodies against CD4 (T cells and DCs) (eBioscience, clone GK1.5), CD8 (T cells and DCs) (eBioscience, clone 53-6.7), CD43 (T cells, monocytes, granulocytes) (eBioscience, clone eBioR2/60), and Ter119 (erythrocytes) (eBioscience, clone TER119). B cells were further purified through MACS LS column (Miltenyi Biotec 130-042-401).
Splenic DCs (5 × 10^5 cells/mL) were stimulated by Pam3 (200 nM), SUP3 (200 nM), or CpG ODN 1668 (20 nM; Adipogen IAX-200-001) in the GM-CSF (20 ng/mL) supplemented medium for indicated periods. […] Cytokines (IL-6, eBioscience 88-7064; TNFα, eBioscience 88-7324; IL-12p40, BioLegend 431604), chemokine (MIP1α, R&D Systems DY450-05), and total IgM (eBioscience, 88-50470) were quantified by ELISA kits following the instructions of manufacturers.
Figure 7 SUP3 promoted stronger B cell activation in vitro. […] (B) Supernatants were harvested 3 or 5 days post-stimulation, and total IgM in the supernatant was determined by ELISA. […]

[2] = test system: OT-II CD4^+ T cells; assay: OT-II CD4+ T cell activation in vivo; set-up: species or system mice; settings: OVA 100 µg per mouse s.c. with 2 nmol per mouse, 3 days; vs Pam3
Description: Carboxyfluorescein diacetate succinimidyl ester-stained OT-II CD4^+ T cells (2 × 10^6 cells per mouse) were transferred into mice 1 day prior immunization. Then the recipients were subcutaneously (s.c.) injected with OVA alone (100 µg per mouse), or OVA mixed with SUP3 (2 nmol per mouse) or Pam3 (2 nmol per mouse) at groin. Three days after immunization, OT-II CD4^+ T cells from inguinal lymph nodes were analyzed by flow cytometry.
Figure 5 SUP3 enhanced antigen presentation ability of CD11b^+ conventional dendritic cells (cDCs) and production of antibodies against thymus-dependent (TD) antigens. […] Three days after immunization, division of OT-II CD4^+ T cells from inguinal lymph nodes were analyzed by flow cytometry (B). Absolute numbers of proliferated OT-II CD4^+ T cells were calculated in (C). […] Cells were then thoroughly washed and cocultured with CFSE-stained OT-II CD4^+ T cells for 4 days and analyzed by flow cytometry. (D) The division of OT-II cells was measured by reduced level of CFSE-labeling. (E) Absolute numbers of proliferated T cells from (D) were calculated. (F) SUP3 (2 nmol per mouse), Pam3 (2 nmol per mouse), or PBS were i.v. injected into mice for 1 h, and splenic CD11b^+ cDCs were enriched and analyzed for CD86 expression by flow cytometry. […] The cytokines from supernatant were determined by ELISA (*p < 0.05, **p < 0.01). […]

Compound: CCCCCCCCCCCCCCCC(=O)N[C@@H](CSC[C@@H](COC(=O)NCCCCCCCCCCCCCC)OC(=O)NCCCCCCCCCCCCCC)C(=O)NCC(=O)N[C@@H](CCCCN)C(=O)N[C@@H](CCCCN)C(=O)N[C@@H](CCCCN)C(=O)O [SUP3, (2S,5S,8S,14R,18R)-2,5,8-tris(4-aminobutyl)-4,7,10,13,21-pentaoxo-14-palmitamido-18-((tetradecylcarbamoyl)oxy)-20-oxa-16-thia-3,6,9,12,22-pentaazahexatriacontan-1-oic acid] (Palmitoyl-C(X1)GKKK-OH)
- antigen-independent production of IgM by B cells [1]: more
- proliferation of OT-II CD4+ T cells in draining lymph nodes [2]: more proliferation of OT-II CD4^+ T cells than that with Pam3
